Our source for the Ki, Bmax and Kd values is ChEMBL document CHEMBL2407029 (Bioorg Med Chem Lett, 2013).

Square brackets hold non-standard residues; d marks the D form. Peptide text beside a SMILES is read from it. Phe(4-I) = N[C@@H](Cc1ccc(I)cc1)C(=O)O

A short description of experiment [1]: Displacement of [131I]-[D-Ala2,4'-I-Phe8]alpha-Neoendorphin from opioid receptor in CD-1 mouse brain after 90 mins by competitive binding assay. The experiment is classed as tissue-based.
The species entered for a further experiment is Mus musculus. The experiment can be described thus: (§1) Binding affinity to opioid receptor in CD-1 mouse brain after 90 mins. The following applies: tested as the 131I-labelled form.
Experiment [2] in a line: as §1. To be noted: read-out: Kd(app).
Experiment [3] deals with Delta-type opioid receptor (Homo sapiens, UniProt P41143). The experiment in a line: Displacement of [125]IBNtxA from DOR-1 (unknown origin) transfected in CHO cells after 90 mins by competitive binding assay. The experiment is classed as cell-based.
For experiment [4], the target named is Kappa-type opioid receptor (Homo sapiens, UniProt P41145). The experiment can be described thus: Displacement of [125]IBNtxA from KOR-1 (unknown origin) transfected in CHO cells after 90 mins by competitive binding assay. The experiment is classed as cell-based.

For orientation: Ki means a dissociation constant, usually derived from enzyme kinetics or from competition with a known ligand. Read a high Ki as weaker binding. `C[C@@H](NC(=O)[C@@H](N)Cc1ccc(O)cc1)C(=O)NCC(=O)N(C)[C@@H](Cc1ccccc1)C(=O)NCCO` [DAMGO] showed a Ki in experiment [1] of 1.4 nM.
Take `CC(C)C[C@H](NC(=O)[C@H](Cc1ccccc1)NC(=O)CNC(=O)[C@@H](C)NC(=O)[C@@H](N)Cc1ccc(O)cc1)C(=O)N[C@@H](CCCNC(=N)N)C(=O)N[C@@H](CCCCN)C(=O)N[C@@H](Cc1ccc(I)cc1)C(=O)N1CCC[C@H]1C(=O)N[C@@H](CCCCN)C(=O)O` (H-Y[dA]GFLRK[Phe(4-I)]PK-OH): the Bmax in the experiment filed under Mus musculus was found to be 465 fmol/mg.
For the compound `CC(C)C[C@H](NC(=O)[C@H](Cc1ccccc1)NC(=O)CNC(=O)[C@@H](C)NC(=O)[C@@H](N)Cc1ccc(O)cc1)C(=O)N[C@@H](CCCNC(=N)N)C(=O)N[C@@H](CCCCN)C(=O)N[C@@H](Cc1ccc([131I])cc1)C(=O)N1CCC[C@H]1C(=O)N[C@@H](CCCCN)C(=O)O`, the Kd in experiment [2] was 11 nM.
Take `CC[C@H](C)[C@H](NC(=O)[C@H](CCCNC(=N)N)NC(=O)[C@H](CCCNC(=N)N)NC(=O)[C@H](CC(C)C)NC(=O)[C@H](Cc1ccccc1)NC(=O)CNC(=O)CNC(=O)[C@@H](N)Cc1ccc(O)cc1)C(=O)N[C@@H](CCCNC(=N)N)C(=O)N1CCC[C@H]1C(=O)N[C@@H](CCCCN)C(=O)N[C@@H](CC(C)C)C(=O)N[C@@H](CCCCN)C(=O)N[C@@H](Cc1c[nH]c2ccccc12)C(=O)N[C@@H](CC(=O)O)C(=O)N[C@@H](CC(N)=O)C(=O)N[C@@H](CCC(N)=O)C(=O)O` [DYNORPHIN A (1-17)]: the affinity in experiment [1], expressed as Ki, was 5.5 nM.
Regarding `CC(C)C[C@H](NC(=O)[C@H](Cc1ccccc1)NC(=O)CNC(=O)CNC(=O)[C@@H](N)Cc1ccc(O)cc1)C(=O)N[C@@H](CCCNC(=N)N)C(=O)N[C@@H](CCCCN)C(=O)N[C@@H](Cc1ccc(O)cc1)C(=O)N1CCC[C@H]1C(=O)N[C@@H](CCCCN)C(=O)O` (H-YGGFLRKYPK-OH), the figures for the inhibitory constant (Ki) in experiment [3], in experiment [4] and in experiment [1] were 1.7 nM, 2.4 nM and 9.8 nM, respectively.
Compound `CC(C)C[C@H](NC(=O)[C@H](Cc1ccccc1)NC(=O)CNC(=O)CNC(=O)[C@@H](N)Cc1ccc(O)cc1)C(=O)N[C@@H](CCCNC(=N)N)C(=O)N[C@@H](CCCNC(=N)N)C(=O)N[C@@H](CCC(N)=O)C(=O)N[C@@H](Cc1ccccc1)C(=O)N[C@@H](CCCCN)C(=O)N[C@H](C(=O)N[C@H](C(=O)N[C@H](C(=O)O)[C@@H](C)O)C(C)C)C(C)C` [DYNORPHIN B] displayed a Ki in experiment [1] of 6.7 nM.
